Compound | glass transition temperature [°C]
*CCCOC(=O)C1CCC(C(=O)O*)CC1 (repeat unit) | -6.00
*C(=O)NNC(=O)c1ccc([Si](c2ccccc2)(c2ccccc2)c2ccc(C(=O)NNC(=O)c3ccc(*)nc3)cc2)cc1 (repeat unit) | 240.00
*CC(*)(CC(=O)OC1CCCCC1)C(=O)OC1CCCCC1 (repeat unit) | 142.00
*CC(*)(CC(=O)OC1CCCCCC1)C(=O)OC1CCCCCC1 (repeat unit) | 105.00
*c1ccc2c(c1)C(=O)N(c1ccc(Oc3ccc(N4C(=O)c5ccc(C(F)(F)C(F)(F)C(F)(F)C(F)(F)C(F)(F)C(F)(F)C(F)(F)C(*)(F)F)cc5C4=O)cc3)cc1)C2=O (repeat unit) | 186.00
*CCN(*)C(=O)c1cc(F)ccc1F (repeat unit) | 112.00
*O[Si](C)(C)O[Si](C)(C)O[Si](C)(C)O[Si](C)(C)O[Si](C)(C)C#Cc1ccc(C#C[Si](*)(C)C)cc1 (repeat unit) | 78.00
*c1ccc2oc(-c3ccc(Oc4ccc(-c5nc6cc(C(*)(c7ccccc7)C(F)(F)F)ccc6o5)cc4)cc3)nc2c1 (repeat unit) | 299.00
*CC(*)(C)C(=O)Oc1ccc(C)cc1C (repeat unit) | 109.00
*OP(=O)(Oc1ccccc1)Oc1c(C)cc(S(=O)(=O)c2cc(C)c(*)c(C)c2)cc1C (repeat unit) | 142.00
*CC(*)(C)C(=O)OCCF (repeat unit) | 90.00
*CC(O*)C1CC(F)(F)C1(F)F (repeat unit) | -25.00
*/C=C(/*)C(C)(C)C (repeat unit) | 200.00
*CCCCCCCCCCCCOc1c(OC)cc(/C=C/c2ccc(/C=C/c3cc(OC)c(O*)c(OC)c3)cc2)cc1OC (repeat unit) | 61.10
*c1cc(N2C(=O)c3ccc(-c4ccc5c(c4)C(=O)N(*)C5=O)cc3C2=O)c(O)cc1O (repeat unit) | 343.00
*CC(OCCCC)C(C(=O)OC)C(*)C(=O)OC (repeat unit) | 32.50
*c1ccc(Oc2ccc(S(=O)(=O)c3ccc(Oc4ccc(-c5c6c(c(*)c7ccccc57)C(=O)N(c5ccccc5-c5ccccc5)C6=O)cc4)cc3)cc2)cc1 (repeat unit) | 278.00
*CCCCCOC(=O)CCCCC(=O)O* (repeat unit) | -69.00
*c1ccc(Oc2ccc(-c3ccc(Oc4ccc(N5C(=O)c6ccc(Oc7ccc(C(C)(C)c8ccc(Oc9ccc%10c(c9)C(=O)N(*)C%10=O)cc8)cc7)cc6C5=O)cc4)cc3)cc2)cc1 (repeat unit) | 220.00
*c1ccc(-c2cc(CCCCCCCC)c(-c3ccc(-c4ccc(-c5sc(-c6ccc([Si](C)(C)[Si](*)(C)C)s6)cc5CCCCCCCC)s4)s3)s2)s1 (repeat unit) | 12.00
*c1ccc2c(c1)C(=O)N(C1CCC(CC3CCC(N4C(=O)c5ccc(C(*)(C(F)(F)F)C(F)(F)F)cc5C4=O)CC3)CC1)C2=O (repeat unit) | 265.00
*Cc1ccccc1C[Si](*)(C)C (repeat unit) | 75.00

Compound | glass transition temperature [°C]
*CC(C#N)C(CCC(C)(O)C=C)C(*)(C)C (repeat unit) | 50.00
*O[Si](c1ccccc1)(c1ccccc1)c1cccc(*)c1 (repeat unit) | 62.00
*CC(*)C(=O)c1ccc(C(C)C)cc1 (repeat unit) | 62.50
*CCCCCCCCCCNC(=O)CCP(C)(=O)CCC(=O)N* (repeat unit) | 45.50
*Oc1ccc(P(=O)(c2ccccc2)c2ccc(Oc3ccc(C(C)(C)c4ccc(*)cc4)cc3)cc2)cc1 (repeat unit) | 199.00
*CC(*)CNc1ccc([N+](=O)[O-])cn1 (repeat unit) | 151.00
*Nc1cccc(NC(=C(C#N)C#N)c2cccc(C(*)=C(C#N)C#N)c2)c1 (repeat unit) | 278.00
*Oc1ccc(-c2ccc(OC(=O)Nc3cccc(P(=O)(c4ccccc4)c4cccc(NC(*)=O)c4)c3)cc2)cc1 (repeat unit) | 72.00
*CCCCCOC(=O)O* (repeat unit) | -42.9
*CCSS* (repeat unit) | -27.00
*O[Si](*)(C)CCCC (repeat unit) | -115.00
*CC(*)n1cncn1 (repeat unit) | 165.00
*c1ccc(CC(=O)Nc2cccc(NC(=O)Cc3ccc(-c4sc(*)c(-c5ccccc5)c4-c4ccccc4)cc3)c2)cc1 (repeat unit) | 228.00
*C1CCOC1* (repeat unit) | 131.00
*Oc1c(Cl)cc(C(c2cc(Cl)c(OC(*)=O)c(Cl)c2)C2CC3CCC2C3)cc1Cl (repeat unit) | 270.00
*c1ccc2c(c1)C(=O)N(c1ccc(C(=O)Nc3ccc(Oc4ccc(-c5ccc(Oc6ccc(NC(=O)c7ccc(N8C(=O)c9ccc(C(*)(C(F)(F)F)C(F)(F)F)cc9C8=O)cc7)cc6)cc5)cc4)cc3)cc1)C2=O (repeat unit) | 296.00
*CCCCCCNC(=O)C(CC)CC(CC)C(=O)N* (repeat unit) | 94.00
*c1ccc(Oc2ccc(P(=O)(c3ccccc3)c3ccc(Oc4ccc(-c5ccc(*)nc5)cc4)cc3)cc2)cc1 (repeat unit) | 257.00
*c1ccc(Oc2ccc(Sc3ccc(Oc4ccc(-c5cccc(*)n5)cc4C(F)(F)F)cc3)cc2)c(C(F)(F)F)c1 (repeat unit) | 144.50
*O[Si](C)(C)O[Si](C)(C)O[Si](C)(C)O[Si](C)(C)O[Si](C)(C)c1ccc([Si](*)(C)C)cc1 (repeat unit) | -80.00
*OC(=O)c1ccc(C(=O)OC2COC3C(*)COC23)o1 (repeat unit) | 192.50

More lines, now with the values ahead:

glass transition temperature [°C] | Compound
118.50 | *CC(*)(C)C(=O)OCCCCCCOc1ccc(/N=N/c2ccc(C3OCC4(CO3)CC3C=CC4C3)cc2)cc1 (repeat unit)
126.00 | *CCCCCCCCCCC(=O)Nc1ccc(Oc2cccc(NC(=O)CCCCCCCCCCN3C(=O)c4ccc(C(=O)c5ccc6c(c5)C(=O)N(*)C6=O)cc4C3=O)c2)cc1 (repeat unit)
71.00 | *CCCCCCOC(=O)Nc1ccc(Cc2ccc(NC(=O)O*)cc2)cc1 (repeat unit)
160.00 | *Oc1ccc(NC(=O)CCCCCCCC(=O)Nc2ccc(*)cc2)cc1 (repeat unit)
25.00 | *O[Si](*)(C)CCCCCCCCCCCOc1ccc(C(=O)OC/C=C(\C)CCC=C(C)C)cc1 (repeat unit)
-50.00 | *CCOCCOC(=O)c1ccccc1C(=O)O* (repeat unit)
60.00 | *CC#C/C(C#CCOC(=O)CCCCCCCCC(=O)O*)=C\c1ccc(C#Cc2ccccc2)cc1 (repeat unit)
263.00 | *Oc1ccc(S(=O)(=O)c2ccc(Oc3ccc(NC(=O)c4cc(NC(=O)c5ccc(OC(C)=O)cc5)cc(C(=O)Nc5ccc(*)cc5)c4)cc3)cc2)cc1 (repeat unit)
328.00 | *c1ccc(Oc2cccc(Oc3ccc(-n4c(=O)c5cc6c(=O)n(*)c(=O)c6cc5c4=O)cc3)c2C#N)cc1 (repeat unit)
215.00 | *Oc1ccc(Nc2ccc(C(=O)c3ccc(C(=O)c4ccc(Nc5ccc(*)cc5)cc4)cc3)cc2)cc1 (repeat unit)
38.00 | *O[Si](*)(C)CCCOc1ccc(-c2ccc(C#N)cc2)cc1 (repeat unit)
350.00 | *c1ccc(Oc2ccc(-c3nc4cc5sc(*)nc5cc4s3)cc2)cc1 (repeat unit)
110.50 | *CC(*)(CC(=O)Oc1ccc(OCC)cc1)C(=O)Oc1ccc(OCC)cc1 (repeat unit)
186.00 | *Oc1ccc(S(=O)(=O)c2ccc(Oc3ccc(C(C)(C)c4ccc(*)cc4)cc3)cc2)cc1 (repeat unit)
213.00 | *c1ccc(Oc2ccc(C(c3ccc(Oc4ccc(-c5nnc(*)n5-c5ccc(C)cc5)cc4)cc3)(C(F)(F)F)C(F)(F)F)cc2)cc1 (repeat unit)
245.00 | *c1ccc(Oc2ccc(C(=O)c3ccc(Oc4ccc(-c5c6c(c(*)c7ccccc57)C(=O)N(c5ccccc5-c5ccccc5)C6=O)cc4)cc3)cc2)cc1 (repeat unit)
83.00 | *CCCCCCOC(=O)c1cc(/N=N/c2ccc(OCC)cc2)ccc1-c1ccc(/N=N/c2ccc(OCC)cc2)cc1C(=O)O* (repeat unit)
175.00 | *c1cccc(OCCCCOc2cccc(N3C(=O)c4ccc(-c5ccc6c(c5)C(=O)N(*)C6=O)cc4C3=O)c2)c1 (repeat unit)
66.00 | *Oc1ccc(CC(NC(=O)Cc2ccc(OC(=O)COCC(*)=O)cc2)C(=O)OCC)cc1 (repeat unit)
251.00 | *c1ccc(Oc2ccc(C(=O)c3cccc(C(=O)c4ccc(Oc5ccc(-c6c7c(c(*)c8ccccc68)C(=O)N(C)C7=O)cc5)cc4)c3)cc2)cc1 (repeat unit)
155.00 | *Oc1ccc(NC(=O)c2ccc(Oc3ccc(C(C)(C)c4cccc(C(C)(C)c5ccc(Oc6ccc(C(=O)Nc7ccc(*)cc7)cc6)cc5)c4)cc3)cc2)cc1 (repeat unit)
355.00 | *Oc1ccc(C2(c3ccc(OC(*)=O)cc3)c3ccccc3-c3ccccc32)cc1 (repeat unit)
44.00 | *Oc1ccc(CC(NC(=O)CCc2ccc(OC(=O)CCCCCCCCC(*)=O)cc2)C(=O)OC(C)C)cc1 (repeat unit)
-1.10 | *CCCCCCCCCOc1ccc(CCc2ccc(O*)cc2C)cc1 (repeat unit)
104.00 | *CCCCCCNC(=O)Cc1ccc(C(=O)N*)cc1 (repeat unit)
90.40 | *Oc1ccc(C(C)(C)c2ccc(OC(=O)OCC3CCC(COC(*)=O)CC3)cc2)cc1 (repeat unit)
36.00 | */C=C(/*)CCCOc1ccc(OC(=O)c2ccc(OCCCC)cc2)cc1 (repeat unit)

Source: the PolyMetriX glass transition set
